From patent publication US11203601B2, “Tricyclic compounds as glycogen synthase kinase 3 (GSK3) inhibitors and uses thereof” (The Broad Institute, Inc., priority 2017, dated 2021)

Key:
Assay in all cases: Carna kinome panel
Assay type in all cases: biochemical
Conditions in all cases: read-out: % Inhibition at 10 μM of the test compound
[1] = biological target: HIPK4 (Homo sapiens (Human), UniProt Q8NE63)
[2] = biological target: EPHA2 (Homo sapiens (Human), UniProt P29317)
[3] = biological target: JNK1 (Homo sapiens (Human), UniProt P45983)
[4] = biological target: PKR (Homo sapiens (Human), UniProt P19525)
[5] = biological target: DLK_Cascade (Homo sapiens (Human), UniProt Q12852)
[6] = biological target: NDR1 (Homo sapiens (Human), UniProt Q15208)
[7] = biological target: EPHB2 (Homo sapiens (Human), UniProt P29323)
[8] = biological target: PDGFRα(V561D) (Homo sapiens (Human), UniProt P16234, V561D)
[9] = biological target: LATS2 (Homo sapiens (Human), UniProt Q9NRM7)
[10] = biological target: RSK3 (Homo sapiens (Human), UniProt Q15349)
[11] = biological target: PAK1 (Homo sapiens (Human), UniProt Q13153)
[12] = biological target: BRSK2 (Homo sapiens (Human), UniProt Q8IWQ3)
[13] = biological target: DAPK1 (Homo sapiens (Human), UniProt P53355)
[14] = biological target: CDK4/CycD3 (Homo sapiens (Human), UniProt P11802)
[15] = biological target: YES (Homo sapiens (Human), UniProt P07947)
[16] = biological target: p38α (Homo sapiens (Human), UniProt Q16539)
[17] = biological target: PEK (Homo sapiens (Human), UniProt Q9NZJ5)
[18] = biological target: PKCβ1 (Homo sapiens (Human), UniProt P05771)
[19] = biological target: WNK3 (Homo sapiens (Human), UniProt Q9BYP7)
[20] = biological target: EPHA3 (Homo sapiens (Human), UniProt P29320)
[21] = biological target: SRC (Homo sapiens (Human), UniProt P12931)
[22] = biological target: LTK (Homo sapiens (Human), UniProt P29376)
Protocol: (§1) Briefly, a selection of compounds was screened against a panel of kinases at a single concentration of 10 μM. […] This was completed using one of two assays, depending on the kinase being examined: 1) IMAP Assay. A solution of 4× inhibitor, 4× substrate/ATP/metal solution and 2× kinase solution was prepared with assay buffer (20 mM HEPES, 0.01% Tween-20, 2 mM DTT, pH 7.4) and mixed, then incubated in 384-well black plates for 1 hour at room temperature. The IMAP binding reagent (IMAP Screening Express kit; Molecular Devices) was added to each well and incubated for 30 minutes. […] 2) Off-Chip Mobility Shift Assay (MSA). A solution of 4× inhibitor, 4× substrate/ATP/metal solution and 2× kinase solution was prepared with assay buffer (20 mM HEPES, 0.01% Triton X-100, 2 mM DTT, pH 7.5) and mixed, then incubated in 384-well plates for 1 or 5 hours depending on the kinase, at room temperature. Termination buffer (QuickScout Screening assist MSA; Carna Biosciences) was added to each well. The entire reaction mixture was then applied to a LabChip3000 system (Caliper Life Science), and the product and substrate peptide peaks were separated and quantified. […] The entire reaction mixture was then applied to a LabChip3000 system (Caliper Life Science), and the product and substrate peptide peaks were separated and quantified.

[23] = biological target: DYRK1B (Homo sapiens (Human), UniProt Q9Y463)
Protocol: as §1

[24] = biological target: PHKG1 (Homo sapiens (Human), UniProt Q16816)
[25] = biological target: p38γ (Homo sapiens (Human), UniProt P53778)
[26] = biological target: MET(M1250T) (Homo sapiens (Human), UniProt P08581, M1250T)
[27] = biological target: EPHA8 (Homo sapiens (Human), UniProt P29322)
[28] = biological target: TSSK2 (Homo sapiens (Human), UniProt Q96PF2)
[29] = biological target: PLK1 (Homo sapiens (Human), UniProt P53350)
[30] = biological target: NEK6 (Homo sapiens (Human), UniProt Q9HC98)
[31] = biological target: TSSK3 (Homo sapiens (Human), UniProt Q96PN8)
[32] = biological target: DYRK3 (Homo sapiens (Human), UniProt O43781)
[33] = biological target: MET(Y1235D) (Homo sapiens (Human), UniProt P08581, Y1235D)
[34] = biological target: PDGFRα (Homo sapiens (Human), UniProt P16234)
[35] = biological target: CDK6/CycD3 (Homo sapiens (Human), UniProt Q00534)
[36] = biological target: CaMK4 (Homo sapiens (Human), UniProt Q16566)
[37] = biological target: TAOK2 (Homo sapiens (Human), UniProt Q9UL54)
[38] = biological target: CK1γ2 (Homo sapiens (Human), UniProt P78368)
[39] = biological target: RET(M918T) (Homo sapiens (Human), UniProt P07949, M918T)
[40] = biological target: SRPK2 (Homo sapiens (Human), UniProt P78362)

WNK3, sequence (Q9BYP7 whole entry): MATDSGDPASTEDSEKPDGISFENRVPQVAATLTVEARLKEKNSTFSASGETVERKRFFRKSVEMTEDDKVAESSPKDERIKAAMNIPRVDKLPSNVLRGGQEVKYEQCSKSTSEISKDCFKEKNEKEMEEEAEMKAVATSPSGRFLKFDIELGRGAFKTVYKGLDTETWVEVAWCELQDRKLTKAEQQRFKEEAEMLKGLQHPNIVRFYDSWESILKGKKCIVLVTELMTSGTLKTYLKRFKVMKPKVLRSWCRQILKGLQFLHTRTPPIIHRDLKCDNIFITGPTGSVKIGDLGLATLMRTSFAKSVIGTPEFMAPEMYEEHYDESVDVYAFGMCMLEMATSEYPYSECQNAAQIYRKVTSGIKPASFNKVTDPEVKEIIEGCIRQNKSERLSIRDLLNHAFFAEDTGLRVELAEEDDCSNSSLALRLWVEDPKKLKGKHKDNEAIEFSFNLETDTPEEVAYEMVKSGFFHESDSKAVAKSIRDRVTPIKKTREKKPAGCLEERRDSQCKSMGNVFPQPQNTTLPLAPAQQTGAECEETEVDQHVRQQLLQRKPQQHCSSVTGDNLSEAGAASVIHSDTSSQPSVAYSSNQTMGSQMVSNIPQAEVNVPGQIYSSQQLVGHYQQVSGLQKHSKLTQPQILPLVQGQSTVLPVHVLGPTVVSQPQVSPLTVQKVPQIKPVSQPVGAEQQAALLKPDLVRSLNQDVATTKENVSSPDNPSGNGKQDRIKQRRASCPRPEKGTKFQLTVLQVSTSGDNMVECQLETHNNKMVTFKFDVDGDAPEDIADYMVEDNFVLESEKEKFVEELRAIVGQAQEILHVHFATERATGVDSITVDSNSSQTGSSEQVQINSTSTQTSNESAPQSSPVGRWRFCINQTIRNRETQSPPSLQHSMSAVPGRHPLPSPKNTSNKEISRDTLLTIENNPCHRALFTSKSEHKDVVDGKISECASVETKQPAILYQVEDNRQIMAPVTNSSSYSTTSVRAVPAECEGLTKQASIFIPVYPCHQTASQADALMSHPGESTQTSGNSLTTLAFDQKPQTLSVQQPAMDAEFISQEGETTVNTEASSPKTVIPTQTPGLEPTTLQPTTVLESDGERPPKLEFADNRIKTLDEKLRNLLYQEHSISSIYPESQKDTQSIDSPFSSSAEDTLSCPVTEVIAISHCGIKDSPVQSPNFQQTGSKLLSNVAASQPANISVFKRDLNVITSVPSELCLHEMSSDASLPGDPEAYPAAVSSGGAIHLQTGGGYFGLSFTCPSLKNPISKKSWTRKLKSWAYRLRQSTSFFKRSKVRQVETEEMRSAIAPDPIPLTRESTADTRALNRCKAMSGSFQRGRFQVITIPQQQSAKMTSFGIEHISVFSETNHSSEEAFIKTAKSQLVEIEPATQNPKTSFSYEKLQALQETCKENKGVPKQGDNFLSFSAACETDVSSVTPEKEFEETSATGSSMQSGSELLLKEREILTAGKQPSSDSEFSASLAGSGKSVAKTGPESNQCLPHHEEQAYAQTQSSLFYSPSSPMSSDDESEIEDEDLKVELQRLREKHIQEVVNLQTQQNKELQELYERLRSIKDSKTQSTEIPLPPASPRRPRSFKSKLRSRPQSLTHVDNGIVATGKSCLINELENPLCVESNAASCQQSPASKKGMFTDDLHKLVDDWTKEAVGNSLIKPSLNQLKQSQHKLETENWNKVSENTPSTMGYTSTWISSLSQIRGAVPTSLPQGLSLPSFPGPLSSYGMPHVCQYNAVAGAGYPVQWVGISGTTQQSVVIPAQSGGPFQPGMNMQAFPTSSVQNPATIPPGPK
PKR, sequence (P19525 whole entry): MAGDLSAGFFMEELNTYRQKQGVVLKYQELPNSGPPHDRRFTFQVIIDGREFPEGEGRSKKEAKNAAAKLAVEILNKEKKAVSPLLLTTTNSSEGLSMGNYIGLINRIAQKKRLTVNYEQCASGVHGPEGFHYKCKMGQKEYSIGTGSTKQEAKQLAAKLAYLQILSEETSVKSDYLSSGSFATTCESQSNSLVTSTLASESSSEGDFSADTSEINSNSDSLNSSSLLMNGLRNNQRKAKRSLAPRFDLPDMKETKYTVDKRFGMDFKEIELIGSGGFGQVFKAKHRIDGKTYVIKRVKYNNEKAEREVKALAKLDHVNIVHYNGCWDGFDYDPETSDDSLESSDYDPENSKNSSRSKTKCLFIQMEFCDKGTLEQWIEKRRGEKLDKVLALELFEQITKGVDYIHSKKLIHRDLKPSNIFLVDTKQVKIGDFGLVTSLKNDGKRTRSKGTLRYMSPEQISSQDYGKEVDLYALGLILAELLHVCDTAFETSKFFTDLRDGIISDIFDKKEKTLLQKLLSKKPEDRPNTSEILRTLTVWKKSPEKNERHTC
PDGFRα, sequence (P16234 24-1089): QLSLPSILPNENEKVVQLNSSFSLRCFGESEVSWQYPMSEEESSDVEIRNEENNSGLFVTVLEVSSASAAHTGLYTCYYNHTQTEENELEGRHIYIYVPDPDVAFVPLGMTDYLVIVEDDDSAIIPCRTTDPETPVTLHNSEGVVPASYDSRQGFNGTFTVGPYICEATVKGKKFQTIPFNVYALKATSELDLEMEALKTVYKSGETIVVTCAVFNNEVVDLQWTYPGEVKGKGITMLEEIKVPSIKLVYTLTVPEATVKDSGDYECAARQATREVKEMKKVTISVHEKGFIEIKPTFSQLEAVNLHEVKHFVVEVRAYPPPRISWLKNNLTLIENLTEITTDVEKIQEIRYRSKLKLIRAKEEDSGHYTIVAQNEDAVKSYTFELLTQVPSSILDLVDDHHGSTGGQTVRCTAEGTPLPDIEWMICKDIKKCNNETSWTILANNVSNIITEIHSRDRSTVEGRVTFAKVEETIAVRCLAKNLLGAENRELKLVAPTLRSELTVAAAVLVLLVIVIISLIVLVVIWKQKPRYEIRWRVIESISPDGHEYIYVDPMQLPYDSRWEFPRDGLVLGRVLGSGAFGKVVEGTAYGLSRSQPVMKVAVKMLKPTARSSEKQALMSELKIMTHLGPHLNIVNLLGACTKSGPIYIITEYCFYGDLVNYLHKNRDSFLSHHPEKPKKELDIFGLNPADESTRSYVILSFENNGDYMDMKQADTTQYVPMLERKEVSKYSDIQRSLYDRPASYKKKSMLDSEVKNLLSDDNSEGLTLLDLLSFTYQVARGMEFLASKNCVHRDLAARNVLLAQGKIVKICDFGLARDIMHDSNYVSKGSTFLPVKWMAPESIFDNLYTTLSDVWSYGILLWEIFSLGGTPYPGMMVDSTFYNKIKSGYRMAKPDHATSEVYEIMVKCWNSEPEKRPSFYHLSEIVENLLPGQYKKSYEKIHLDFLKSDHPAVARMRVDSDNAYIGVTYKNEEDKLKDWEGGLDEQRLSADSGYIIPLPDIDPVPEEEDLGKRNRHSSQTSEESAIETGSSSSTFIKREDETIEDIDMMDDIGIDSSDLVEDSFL
EPHB2, sequence (P29323 19-1055): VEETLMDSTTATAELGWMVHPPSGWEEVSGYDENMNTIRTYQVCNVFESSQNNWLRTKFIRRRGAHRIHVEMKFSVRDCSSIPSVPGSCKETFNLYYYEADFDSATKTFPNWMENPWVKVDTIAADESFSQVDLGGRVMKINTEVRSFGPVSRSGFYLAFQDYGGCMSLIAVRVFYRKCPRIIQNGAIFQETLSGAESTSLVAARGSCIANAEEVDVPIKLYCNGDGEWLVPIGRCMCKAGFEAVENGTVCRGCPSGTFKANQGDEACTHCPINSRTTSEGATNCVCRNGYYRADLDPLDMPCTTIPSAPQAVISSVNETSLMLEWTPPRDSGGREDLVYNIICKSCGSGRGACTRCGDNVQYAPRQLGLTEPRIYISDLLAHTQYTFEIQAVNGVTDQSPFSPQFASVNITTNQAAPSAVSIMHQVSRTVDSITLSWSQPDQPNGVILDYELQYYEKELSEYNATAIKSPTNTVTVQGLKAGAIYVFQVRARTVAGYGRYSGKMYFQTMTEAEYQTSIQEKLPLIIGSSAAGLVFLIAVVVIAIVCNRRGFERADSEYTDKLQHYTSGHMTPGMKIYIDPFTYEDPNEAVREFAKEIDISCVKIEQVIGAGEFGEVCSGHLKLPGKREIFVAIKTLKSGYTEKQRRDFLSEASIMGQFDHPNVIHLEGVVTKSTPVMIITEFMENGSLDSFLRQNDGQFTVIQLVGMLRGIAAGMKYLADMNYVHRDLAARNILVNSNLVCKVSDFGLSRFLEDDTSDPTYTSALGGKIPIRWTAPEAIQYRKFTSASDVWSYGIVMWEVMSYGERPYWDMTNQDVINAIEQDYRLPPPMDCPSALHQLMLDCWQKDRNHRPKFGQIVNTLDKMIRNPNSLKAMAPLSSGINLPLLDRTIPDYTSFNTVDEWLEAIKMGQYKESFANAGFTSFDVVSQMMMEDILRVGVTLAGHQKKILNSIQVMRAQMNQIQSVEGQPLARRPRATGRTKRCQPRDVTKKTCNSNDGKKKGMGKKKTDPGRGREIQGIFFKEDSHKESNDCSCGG
JNK1, sequence (P45983 whole entry): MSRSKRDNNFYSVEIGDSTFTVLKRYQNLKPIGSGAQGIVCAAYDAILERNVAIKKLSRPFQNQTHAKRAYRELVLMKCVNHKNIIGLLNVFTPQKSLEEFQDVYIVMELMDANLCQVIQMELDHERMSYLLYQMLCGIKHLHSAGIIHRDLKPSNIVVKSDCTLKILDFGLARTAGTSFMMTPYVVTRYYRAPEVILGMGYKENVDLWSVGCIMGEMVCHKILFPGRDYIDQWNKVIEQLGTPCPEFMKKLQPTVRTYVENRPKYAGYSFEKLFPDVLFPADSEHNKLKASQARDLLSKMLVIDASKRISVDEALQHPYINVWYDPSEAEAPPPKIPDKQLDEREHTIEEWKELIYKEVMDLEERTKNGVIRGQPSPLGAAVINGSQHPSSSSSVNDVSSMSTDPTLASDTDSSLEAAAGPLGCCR
PDGFRα(V561D), sequence (P16234 24-1089 V561D): as the sequence (P16234 24-1089) above, with V538D counted along it

SMILES: CCC1(c2ccccc2)C2=C(CC(C)(C)CC2=O)Nc2ncsc21 (stereo not shown) [Compound 1, 9-Ethyl-6,6-dimethyl-9-phenyl-5,6,7,9-tetrahydrothiazolo[4,5-b]quinolin-8(4H)-one]
- inhibition at 10 µM [1]: -12.5%
- inhibition at 10 µM [2]: -0.3%
- inhibition at 10 µM [3]: -7.3%
- inhibition at 10 µM [4]: -8.9%
- inhibition at 10 µM [5]: 2.5%
- inhibition at 10 µM [6]: 0.2%
- inhibition at 10 µM [7]: 14.5%
- inhibition at 10 µM [8]: 2.8%
- inhibition at 10 µM [9]: 5.4%
- inhibition at 10 µM [10]: -4.9%
- inhibition at 10 µM [11]: 0.3%
- inhibition at 10 µM [12]: -2.9%
- inhibition at 10 µM [13]: -8.7%
- inhibition at 10 µM [14]: 18.1%
- inhibition at 10 µM [15]: 3.3%
- inhibition at 10 µM [16]: 1.1%
- inhibition at 10 µM [17]: -6%
- inhibition at 10 µM [18]: -7.4%
- inhibition at 10 µM [19]: 0.3%
- inhibition at 10 µM [20]: 22.5%
- inhibition at 10 µM [21]: -2.2%
- inhibition at 10 µM [22]: 3.1%
- inhibition at 10 µM [23]: -18.1%
- inhibition at 10 µM [24]: 5.9%
- inhibition at 10 µM [25]: 8.9%
- inhibition at 10 µM [26]: -4.2%
- inhibition at 10 µM [27]: 3%
- inhibition at 10 µM [28]: 3.1%
- inhibition at 10 µM [29]: -5.3%
- inhibition at 10 µM [30]: 20.9%
- inhibition at 10 µM [31]: -5.1%
- inhibition at 10 µM [32]: 0.3%
- inhibition at 10 µM [33]: -12.2%
- inhibition at 10 µM [34]: -10.1%
- inhibition at 10 µM [35]: 5.5%
- inhibition at 10 µM [36]: -5.4%
- inhibition at 10 µM [37]: -5.9%
- inhibition at 10 µM [38]: 3.1%
- inhibition at 10 µM [39]: 0.6%
- inhibition at 10 µM [40]: 3.1%
